Test results taken from patent US5861393A, “Antithrombotic amidinophenylalanine and amidinopyridylalanine derivatives” (Pfizer Inc., priority 1993, dated 1999).
Where a name gives a salt, the structure may show the parent alone.

What was measured:
Format in all cases: biochemical
bovine thrombin = bovine thrombin (Bos taurus, UniProt P00735); assay: Chromogenic assay, inhibition of thrombin; conditions: in vitro; substrate S2238; pH 8.0; 30 minutes at 30° C.
Procedure: (§1) The inhibition of thrombin, trypsin, plasmin or factor Xa is measured in 96 well plate chromogenic assays. The percentage inhibition and IC50 are calculated from triplicate samples of an 8 concentration dose-response curve. From the substrate Km and IC50, the Ki for each inhibitor is calculated. All assays are carried out in a total incubation of 200 μl of 50 mM HEPES and 150 mM NaCl at pH 8.0, and all compound dilutions are preincubated with enzyme at room temperature for 15 minutes prior to addition of substrate. After 30 minutes incubation at 30° C., the O.D. is measured at […] in a 96 well plate reader. Thrombin activity is measured using bovine thrombin and S2238 (H-D-Phe-Pip-Arg-pNA), bovine pancreatic trypsin is assayed with S2222 (Benz-Isoleu-Glu-Gly-Arg-pNA), bovine plasma plasmin is assayed with Chromozym PL (Tosyl-Gly-Pro-Lys-pNA)and bovine factor Xa is assayed in 50 mM Tris,150mM NaCl,pH 7.5 buffer with S2222.

[1] = target: T1, bovine pancreatic trypsin (Bos taurus, UniProt P00760); assay: Chromogenic assay, inhibition of trypsin; conditions: in vitro; substrate S2222; pH 8.0; 30 minutes at 30° C.
T1 construct: from tissue; host or cells: bovine pancreas
T1 sequence (P00760 24-246): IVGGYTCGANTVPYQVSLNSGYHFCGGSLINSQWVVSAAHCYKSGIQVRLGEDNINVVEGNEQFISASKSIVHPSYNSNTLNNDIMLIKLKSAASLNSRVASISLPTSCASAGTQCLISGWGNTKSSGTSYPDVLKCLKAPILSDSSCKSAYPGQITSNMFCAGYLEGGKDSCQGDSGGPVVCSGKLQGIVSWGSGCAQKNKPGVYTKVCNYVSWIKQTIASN
Procedure: as §1

bovine plasma plasmin = target: T2, bovine plasma plasmin (Bos taurus, UniProt P06868); assay: Chromogenic assay, inhibition of plasmin; conditions: in vitro; substrate Chromozym PL; pH 8.0; 30 minutes at 30° C.
T2 construct: from tissue; host or cells: bovine plasma
T2 sequence (P06868 584-812 limits assumed): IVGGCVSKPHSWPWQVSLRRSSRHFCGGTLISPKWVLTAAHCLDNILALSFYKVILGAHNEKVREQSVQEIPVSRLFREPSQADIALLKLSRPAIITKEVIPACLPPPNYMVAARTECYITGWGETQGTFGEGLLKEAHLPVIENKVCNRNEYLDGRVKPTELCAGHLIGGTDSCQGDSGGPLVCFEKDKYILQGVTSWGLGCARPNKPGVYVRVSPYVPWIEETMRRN
T2 sequence (P06868 105-583 partner limits assumed): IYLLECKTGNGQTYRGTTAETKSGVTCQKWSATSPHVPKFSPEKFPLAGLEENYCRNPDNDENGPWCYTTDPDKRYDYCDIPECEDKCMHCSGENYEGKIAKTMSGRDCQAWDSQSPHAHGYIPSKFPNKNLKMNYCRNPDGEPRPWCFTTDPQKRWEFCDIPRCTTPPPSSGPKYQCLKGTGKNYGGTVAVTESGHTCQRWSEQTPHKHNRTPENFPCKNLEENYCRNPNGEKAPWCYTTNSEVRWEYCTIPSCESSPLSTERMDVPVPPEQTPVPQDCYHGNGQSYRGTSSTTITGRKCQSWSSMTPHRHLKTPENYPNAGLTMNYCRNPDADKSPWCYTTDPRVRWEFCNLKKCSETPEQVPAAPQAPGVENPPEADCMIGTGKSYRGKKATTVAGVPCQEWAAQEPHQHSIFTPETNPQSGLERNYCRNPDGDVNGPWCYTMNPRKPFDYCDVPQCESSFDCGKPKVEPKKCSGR
Procedure: as §1

Row | Structure (SMILES) | Ki (bovine thrombin) [nM] | Ki [1] [nM] | Ki (bovine plasma plasmin) [nM]
1 | CC1=CCN(C(=O)[C@H](Cc2cccc(C(=N)N)c2)NS(=O)(=O)c2ccc3c(c2)CCN(C(C)C)CC3)[C@@H](C(=O)O)C1 [Example 8, 4-Methyl-1-{N-[3-(2-propyl]-2,3,4,5-tetrahydro-1H-3-benzazepine-7-sulphonyl-3-amidino-(S)-phenylalanyl}-1,2,3,6-tetrahydropyridine-2(R)-carboxylic acid dihydrochloride] | 6.4 | 40 | 1800
2 | C[C@@H]1CCN(C(=O)C(Cc2cccc(C(=N)N)c2)NS(=O)(=O)c2ccc3c(c2)CN(C)CC3)[C@@H](C(=O)O)C1 (stereo partly drawn) [Example 13, 4(R)-Methyl-1-[N-(2-methyl-1,2,3,4-tetrahydroisoquinoline-7-sulphonyl)-3-amidino-(R,S)-phenylalanyl]piperidine-2(R)-carboxylic acid dihydrochloride] | 4 | 49 | 12000
3 | CC1=CCN(C(=O)[C@H](Cc2cccc(C(=N)N)c2)NS(=O)(=O)c2ccc3c(c2)CNCC3)C(C(=O)O)C1 (stereo partly drawn) [Example 15, 4-Methyl-1-[N-(1,2,3,4-tetrahydroisoquinoline-7-sulphonyl)-3-amidino-(S)-phenylalanvl]-1,2,3,6-tetrahydropyridine-2(R,S)-carboxylic acid dihydrochloride] | 78 | 320 | 14000
4 | CC1=CCN(C(=O)[C@H](Cc2cccc(C(=N)N)c2)NS(=O)(=O)c2ccc3c(c2)CCN(C)C3)[C@@H](C(=O)O)C1 [Example 2, 4-Methyl-1-[N-(2-methyl-1,2,3,4-tetrahydroisoquinoline-6-sulphonyl)-3-amidino-(S)-phenylalanyl]-1,2,3,6-tetrahydropyridine-2(R)-carboxylic acid dihydrochloride] | 3.9 | 57 | 6100
5 | CC1=CCN(C(=O)[C@H](Cc2cccc(C(=N)N)c2)NS(=O)(=O)c2ccc3c(c2)C(CC(=O)N(C)C)N(C)CC3)[C@@H](C(=O)O)C1 (stereo partly drawn) [Example 5, 1-{N-[1(R,S)-(N,N-Dimethylcarbamoylmethyl)-2-methyl-1,2,3,4-tetrahydroisoquinoline-7-sulphonyl]-3-amidino-(S)-phenylalanyl}-4-methyl-1 2,3,6-tetrahydropyridine-2(R-carboxylic acid dihydrochloride] | 2.2 | 54 | 6000
6 | CC1=CCN(C(=O)[C@H](Cc2cccc(C(=N)N)c2)NS(=O)(=O)c2ccc3c(c2)CN(Cc2ccccc2)CC3)[C@@H](C(=O)O)C1 [Example 10, 1-[N-(2-Benzyl-1,2,3,4-tetrahydroisoquinoline-7-sulphonyl)-3-amidino-(S)-phenylalanyl]-4-methyl-1,2,3,6-tetrahydropyridine-2(R)-carboxylic acid dihydrochloride] | 1 | 48 | 180
